Key:
Cyperus iria; CYPIR = assay: Postemergence herbicidal activity of mixtures in the greenhouse, sedge weed control; assay type: in vivo; settings: 21 days after application
Description: Seeds of the desired test plant species were planted in 80% mineral soil/20% grit planting mixture, which typically has a pH of 7.2 and an organic matter content of approximately 3 percent, in plastic pots with a surface area of 128 square centimeters (cm^2). The growing medium was steam sterilized. The plants were grown for 7-19 days (d) in a greenhouse with an approximate 14-hour (h) photoperiod which was maintained at about 29° C. during the day and 26° C. during the night. Nutrients and water were added on a regular basis and supplemental lighting was provided with overhead metal halide 1000-Watt lamps as necessary. The plants were treated with postemergence foliar applications when they reached the second to fourth true leaf stage. All treatments were applied using a randomized complete block trial design, with 4 replications per treatment. Treatments consisted of the compounds as listed in Tables 1 and 3, each compound applied alone and in combination. Formulated amounts of penoxsulam and bentazon, were placed in 60 milliliter (mL) glass vials and dissolved in a volume of 60 mL of a water solution containing Agri-dex crop oil concentrate in a 1% v/v ratio. Compound requirements are based upon a 12 mL application volume at a rate of 187 liters per hectare (L/ha). Spray solutions of the mixtures were prepared by adding the stock solutions to the appropriate amount of dilution solution to form a 12 mL spray solution with active ingredients in single and two way combinations. Formulated compounds were applied to the plant material with an overhead Mandel track sprayer equipped with […] nozzles calibrated to deliver 187 L/ha at a spray height of 18 inches (43 centimeters (cm)) above average plant canopy. The treated plants and control plants were placed in a greenhouse as described above and watered by sub-irrigation to prevent wash-off of the test compounds. […] Visual weed control was scored on a scale of 0 to 100 percent where 0 corresponds to no injury and 100 corresponds to complete kill. […]

[1] = system: Sagittaria trifolia (SAGTR); assay: Postemergence herbicidal activity of mixtures in the field, broadleaf weed control; assay type: in vivo; settings: 6 to 45 days after application
Description: (§1) Field trials were conducted in rice using standard herbicide small plot research methodology. Plots varied from 3×3 meter (m) to 3×10 m (width×length) with 4 replicates per treatment. The rice crop was grown using normal cultural practices for fertilization, seeding, watering, flooding and maintenance to ensure good growth of the crop and the weeds. All treatments in the field trials were applied using a CO2 backpack sprayer calibrated to apply 187 L/ha spray volume. Commercially available products of penoxsulam and bentazon were mixed in water at appropriate formulated product rates to achieve the desired rates based on a unit area of application (hectare) to achieve the desired rates as shown. Treatments were rated at 6 to 45 d after application as compared to the untreated control plants. Visual weed control was scored on a scale of 0 to 100 percent where 0 corresponds to no injury and 100 corresponds to complete kill. Colby's equation was used to determine the herbicidal effects expected from the mixtures (Colby, S. R. Calculation of the synergistic and antagonistic response of herbicide combinations. Weeds 1967, 15, 20-22.). The following equation was used to calculate the expected activity of mixtures containing two active ingredients, A and B: Expected=A+B−(A×B/100) A=observed efficacy of active ingredient A at the same concentration as used in the mixture. B=observed efficacy of active ingredient B at the same concentration as used in the mixture.

[2] = system: Echinochloa crus-galli (ECHCG); assay: Postemergence herbicidal activity of mixtures in the field, grass weed control; assay type: in vivo; settings: 6 to 45 days after application
Description: as §1, with “B=observed efficacy of active ingredient B at the same concentration as used in the mixture.” left out

Rice (ORYSA) = assay: Safening of injury in rice in the greenhouse; assay type: in vivo, Orysa sativa; settings: 21 days after application
Description: Seeds of the desired test plant species were planted in 80% mineral soil/20% grit planting mixture, which typically has a pH of 7.2 and an organic matter content of approximately 3 percent, in plastic pots with a surface area of 128 square centimeters (cm^2). The growing medium was steam sterilized. The plants were grown for 7-19 days (d) in a greenhouse with an approximate 14-hour (h) photoperiod which was maintained at about 29° C. during the day and 26° C. during the night. Nutrients and water were added on a regular basis and supplemental lighting was provided with overhead metal halide 1000-Watt lamps as necessary. The plants were treated with postemergence foliar applications when they reached the second to fourth true leaf stage. All treatments were applied using a randomized complete block trial design, with 4 replications per treatment. Treatments consisted of the compounds as listed in Tables 1 and 3, each compound applied alone and in combination. Formulated amounts of penoxsulam and bentazon, were placed in 60 milliliter (mL) glass vials and dissolved in a volume of 60 mL of a water solution containing Agri-dex crop oil concentrate in a 1% v/v ratio. […] Visual weed control was scored on a scale of 0 to 100 percent where 0 corresponds to no injury and 100 corresponds to complete kill. […]

[3] = bentazon-sodium 1000 g/ha alone

Structure (SMILES)	% Control CYPIR Ob (Cyperus iria; CYPIR; bentazon-sodium 500 g/ha alone)	% Control CYPIR Ob (Cyperus iria; CYPIR; [3])	% Control SAGTR Ob ([1]; bentazon-sodium 1100 g/ha alone)	% Control ECHCG Ob ([2]; bentazon-sodium 2000 g/ha alone)	% Control ORYSA Ob (Rice (ORYSA); bentazon-sodium 500 g/ha alone)	% Control ORYSA Ob (Rice (ORYSA); [3])	% Control CYPIR Ob (Cyperus iria; CYPIR; penoxsulam 3 g/ha alone)	% Control SAGTR Ob ([1]; penoxsulam 15 g/ha alone)	% Control SAGTR Ob ([1]; penoxsulam 23 g/ha alone)	% Control ECHCG Ob ([2]; penoxsulam 38 g/ha alone)
CC(C)N1C(=O)c2ccccc2NS1(=O)=O [Bentazon-Sodium, 3-(1-methylethyl)-1H-2,1,3-benzothiadiazin-4(3H)-one 2,2-dioxide]	55%	72%	78%	0%	14%	16%				
COc1cnc(OC)n2nc(NS(=O)(=O)c3c(OCC(F)F)cccc3C(F)(F)F)nc12 [Penoxsulam, 2-(2,2-difluoroethoxy)-N-(5,8-dimethoxy-[1,2,4]triazolo[1,5-c]pyrimidin-2-yl)-6-(trifluoromethyl)benzenesulfonamide]							20%	38%	45%	30%

Source: patent US10085451B2, “Synergistic herbicidal composition containing penoxsulam and bentazon” (Dow AgroSciences LLC, priority 2010, dated 2018)
